Laboratory results from patent publication US20160251725A1, “METHOD FOR PREDICTING CLINICAL TOXICITY AND OUTCOME” (AGENCY FOR SCIENCE, TECHNOLOGY AND RESEARCH, priority 2013, published 2016).

System: mRCC patients
Assay: Sunitinib toxicities in mRCC patients (CTCAE version 3.0), association with patient factors and genotypes
Format: in vivo, human
Method: Twelve patients in this study received a starting dose of 50 mg daily. Six patients started with 25 mg daily due to advanced age or patients' aversion to expected toxicities.
Patient characteristics were also collected including age, gender, ethnicity, body weight and height, and Eastern Cooperative Oncology Group (ECOG) performance status. Memorial Sloan-Kettering Cancer Center (MSKCC) prognostic score was calculated for each patient with available data. All the collected data were de-identified by a third party before being used in statistical analysis. The follow-up period ended at the end of April, 2014.
The toxicities analyzed included leucopenia, neutropenia, thrombocytopenia, diarrhea, hand-foot syndrome and early toxicity-necessitated treatment termination. […] Early toxicity-necessitated treatment termination was defined as interruption of the first or second treatment cycle consented by the patient and the physician based on recognition of intolerable or life-threatening toxicities without evidence of progressive disease and failure to resume treatment as far as the patient was followed. For patients experiencing any toxicity grade≧2, cycle interruptions were frequently required; in such cases, a resumed treatment with 25% dose reduction would be applied for safety and life quality considerations.
Genotype associations with toxicity events or responsive tumor were first analyzed using univariate logistic regression. Genotypes generating P<0.20 were further analyzed using multivariate logistic regression including patient age, gender, baseline ECOG status and starting dose as covariates. Progression-free survival and overall survival were estimated by means of Kaplan-Meier method, while the associations of genotypes and patient characteristics with PFS and OS were analyzed using two-tailed log rank test. The effects of genotypes on the progression-free survival and overall survival were then evaluated using multivariate Cox regression model by including genotypes and patient characteristics with P<0.05 in univariate analysis. […] In all analyses, missing data were kept missing except for baseline ECOG status, which was replaced with the median value. As this was designed as a validation study of previously observed correlations rather than an exploratory evaluation, multiple testing correction was not done.

[1] = ABCB1 2677 TT + AT + GT vs Other
[2] = ABCB1 haplotype TTT/TTT vs Other

CCN(CC)CCNC(=O)c1c(C)[nH]c(/C=C2\C(=O)Nc3ccc(F)cc32)c1C [sunitinib]
Decrease of the risk of diarrhea (ABCB1 1236 T allele): 25 fold | Decrease of the risk of early toxicity-necessitated treatment termination (ABCB1 1236 T allele): 10 fold | Decrease of the risk of neutropenia (ABCB1 1236 T allele): 3 fold | Diarrhea prevalence (ABCB1 1236 T/C CC): 7/9 | Neutropenia prevalence (ABCB1 1236 T/C CC + CT): 27/52 | Toxicity-necessitated treatment termination prevalence (ABCB1 1236 T/C CC + CT): 10/53 | Neutropenia prevalence (ABCB1 1236 T/C TT): 11/32 | Toxicity-necessitated treatment termination prevalence (ABCB1 1236 T/C TT): 2/30 | Diarrhea prevalence (ABCB1 1236 T/C TT + CT): 13/82 | Diarrhea OR multivariate (ABCB1 1236 TT + CT vs CC): 0.04 | Diarrhea OR univariate (ABCB1 1236 TT + CT vs CC): 0.1 | Neutropenia OR multivariate (ABCB1 1236 TT vs CC + CT): 0.3 | Neutropenia OR univariate (ABCB1 1236 TT vs CC + CT): 0.5 | Toxicity-necessitated treatment termination OR multivariate (ABCB1 1236 TT vs CC + CT): 0.1 | Toxicity-necessitated treatment termination OR univariate (ABCB1 1236 TT vs CC + CT): 0.3 | Neutropenia prevalence (ABCB1 2677 G/TA Other): 20/35 | Neutropenia prevalence (ABCB1 2677 G/TA TT + AT + GT): 20/53 | Decrease of the risk of neutropenia (ABCB1 2677 T allele): 3 fold | Neutropenia OR multivariate [1]: 0.4 | Neutropenia OR univariate [1]: 0.5 | Decrease of the risk of neutropenia (ABCB1 3435, 1236, 2677 TTT haplotype): 10 fold | Neutropenia prevalence (ABCB1 3435 C/T CC + CT): 38/75 | Neutropenia prevalence (ABCB1 3435 C/T TT): 1/12 | Decrease of the risk of diarrhea (ABCB1 3435 T allele): 3 fold | Decrease of the risk of neutropenia (ABCB1 3435 T allele): 10 fold | Diarrhea prevalence (ABCB1 3435 T/C CC): 11/34 | Diarrhea prevalence (ABCB1 3435 T/C TT + CT): 9/60 | Diarrhea OR multivariate (ABCB1 3435 TT + CT vs CC): 0.3 | Diarrhea OR univariate (ABCB1 3435 TT + CT vs CC): 0.4 | Neutropenia OR multivariate (ABCB1 3435 TT vs CC + CT): 0.1 | Neutropenia OR univariate (ABCB1 3435 TT vs CC + CT): 0.1 | Neutropenia prevalence (ABCB1 haplotype Other): 38/79 | Neutropenia prevalence (ABCB1 haplotype TTT/TTT): 1/8 | Neutropenia OR multivariate [2]: 0.1 | Neutropenia OR univariate [2]: 0.2 | Decrease of the risk of neutropenia (ABCG2 421 A allele): 3 fold | Neutropenia OR multivariate (ABCG2 421 AA vs CC + AC): 0.3 | Neutropenia OR univariate (ABCG2 421 AA vs CC + AC): 0.5 | Neutropenia prevalence (ABCG2 421 C/A AA): 16/44 | Neutropenia prevalence (ABCG2 421 C/A CC + AC): 23/42 | Diarrhea OR univariate (Age): 1.0 | Leucopenia OR univariate (Age): 1.0 | Neutropenia OR univariate (Age): 1.0 | Toxicity-necessitated treatment termination OR univariate (Age): 1.1 | Diarrhea prevalence (Baseline ECOG 0): 6/27 | Leucopenia prevalence (Baseline ECOG 0): 1/25 | Neutropenia prevalence (Baseline ECOG 0): 13/25 | Toxicity-necessitated treatment termination prevalence (Baseline ECOG 0): 2/26 | Diarrhea prevalence (Baseline ECOG 1): 9/50 | Leucopenia prevalence (Baseline ECOG 1): 9/44 | Neutropenia prevalence (Baseline ECOG 1): 22/46 | Toxicity-necessitated treatment termination prevalence (Baseline ECOG 1): 7/44 | Diarrhea OR univariate (Baseline ECOG 1 vs 0): 0.8 | Leucopenia OR univariate (Baseline ECOG 1 vs 0): 6.2 | Neutropenia OR univariate (Baseline ECOG 1 vs 0): 0.9 | Toxicity-necessitated treatment termination OR univariate (Baseline ECOG 1 vs 0): 2.3 | Diarrhea prevalence (Baseline ECOG 2): 4/12 | Leucopenia prevalence (Baseline ECOG 2): 1/12 | Neutropenia prevalence (Baseline ECOG 2): 5/12 | Toxicity-necessitated treatment termination prevalence (Baseline ECOG 2): 2/12 | Diarrhea OR univariate (Baseline ECOG 2 vs 0): 1.8 | Leucopenia OR univariate (Baseline ECOG 2 vs 0): 2.2 | Neutropenia OR univariate (Baseline ECOG 2 vs 0): 0.7 | Toxicity-necessitated treatment termination OR univariate (Baseline ECOG 2 vs 0): 2.4 | Diarrhea prevalence (Baseline ECOG 3): 1/6 | Leucopenia prevalence (Baseline ECOG 3): 0/4 | Neutropenia prevalence (Baseline ECOG 3): 0/5 | Toxicity-necessitated treatment termination prevalence (Baseline ECOG 3): 2/5 | Diarrhea OR univariate (Baseline ECOG 3 vs 0): 0.7 | Toxicity-necessitated treatment termination OR univariate (Baseline ECOG 3 vs 0): 8.0 | Diarrhea OR univariate (Female vs Male): 1.2 | Leucopenia OR univariate (Female vs Male): 3.3 | Neutropenia OR univariate (Female vs Male): 2.8 | Toxicity-necessitated treatment termination OR univariate (Gender (printed on the Male row)): 0.9 | Diarrhea prevalence (Gender Female): 5/21 | Leucopenia prevalence (Gender Female): 5/20 | Neutropenia prevalence (Gender Female): 13/20 | Toxicity-necessitated treatment termination prevalence (Gender Female): 3/21 | Diarrhea prevalence (Gender Male): 15/74 | Leucopenia prevalence (Gender Male): 6/65 | Neutropenia prevalence (Gender Male): 27/68 | Toxicity-necessitated treatment termination prevalence (Gender Male): 10/66 | Diarrhea prevalence (Starting dose 37.5 mg): 15/78 | Leucopenia prevalence (Starting dose 37.5 mg): 10/70 | Neutropenia prevalence (Starting dose 37.5 mg): 32/72 | Toxicity-necessitated treatment termination prevalence (Starting dose 37.5 mg): 8/71 | Diarrhea prevalence (Starting dose 50 mg): 3/12 | Leucopenia prevalence (Starting dose 50 mg): 1/11 | Neutropenia prevalence (Starting dose 50 mg): 7/11 | Toxicity-necessitated treatment termination prevalence (Starting dose 50 mg): 2/12 | Diarrhea OR univariate (Starting dose 37.5 vs <37.5 mg): 0.4 | Neutropenia OR univariate (Starting dose 37.5 vs <37.5 mg): 3.2 | Toxicity-necessitated treatment termination OR univariate (Starting dose 37.5 vs <37.5 mg): 0.0 | Diarrhea OR univariate (Starting dose 50 vs <37.5 mg): 0.5 | Neutropenia OR univariate (Starting dose 50 vs <37.5 mg): 7.0 | Toxicity-necessitated treatment termination OR univariate (Starting dose 50 vs <37.5 mg): 0.1 | Diarrhea prevalence (Starting dose <37.5 mg): 2/5 | Leucopenia prevalence (Starting dose <37.5 mg): 0/4 | Neutropenia prevalence (Starting dose <37.5 mg): 1/5 | Toxicity-necessitated treatment termination prevalence (Starting dose <37.5 mg): 3/4 | Leucopenia prevalence (cases affected/total in group) (all patients (n = 85), first cycle): 11/85 | Toxicity-necessitated treatment termination before completing the first two cycles, prevalence (all patients (n = 87)): 13/87 | Neutropenia prevalence (cases affected/total in group) (all patients (n = 88), first cycle): 40/88 | Diarrhea prevalence (cases affected/total in group) (all patients (n = 95), first cycle): 20/95 | Increase of the risk of leucopenia (both, human, in vivo): 8.0 fold | Increase of the risk of neutropenia (both, human, in vivo): 2.7 fold | Leucopenia prevalence (both, human, in vivo): 8/41 | Severe to life-threatening toxicities (early use, initiated at 50 mg daily): frequently noted | Neutropenia prevalence (human, in vivo): 23/41
